PubChem BioAssay AID258 (DTP/NCI, 2004)
Where “and” joins values, the source holds several entries; their conditions need not be identical. Identical values can stand only once. Toxic doses and inconclusive results are not listed.

Tested on: CD2F1 mice, L1210 leukemia sc, survival T/C
Assay: NCI In Vivo Anticancer Drug Screen. Data for tumor model L1210 Leukemia (subcutaneous) in CD2F1 (CDF1) mice
Settings: endpoint: median survival time, higher = longer survival
In short: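 T/C ratio: treated-group survival or tumor size over vehicle-control group measurement, in mice carrying transplanted tumors.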

S=c1nc[nH]c2nc[nH]c12
T/C (dose: 5.0 mg/kg/injection, schedule: Q01DX009 (sc), vehicle: saline with Tween-80): 113 % of control
T/C (dose: 5.0 mg/kg/injection, schedule: Q## X Z (sc), vehicle: other): 111 % of control
T/C (dose: 8.4 mg/kg/injection, schedule: Q01DX Z (sc), vehicle: methylcellulose (MC)): 100 % of control
T/C (dose: 14.0 mg/kg/injection, schedule: Q01DX Z (ip), vehicle: other): 100 % of control
T/C (dose: 14.0 mg/kg/injection, schedule: Q01DX Z (sc), vehicle: methylcellulose (MC)): 100 % of control
T/C (dose: 14.0 mg/kg/injection, schedule: Q01DX Z (sc), vehicle: other): 100 % of control
T/C (dose: 14.0 mg/kg/injection, schedule: Q## X Z (sc), vehicle: other): 172 % of control
T/C (dose: 14.0 mg/kg/injection, schedule: Q#A X Z (sc), vehicle: other): 111 % of control
T/C (dose: 20.0 mg/kg/injection, schedule: Q01DX009 (sc), vehicle: saline with Tween-80): 167 % of control
T/C (dose: 23.0 mg/kg/injection, schedule: Q01DX Z (ip), vehicle: other): 100 % of control
T/C (dose: 23.0 mg/kg/injection, schedule: Q01DX Z (oral), vehicle: other): 110 % of control
T/C (dose: 23.0 mg/kg/injection, schedule: Q01DX Z (sc), vehicle: methylcellulose (MC)): 109 % of control and 110 % of control
T/C (dose: 23.0 mg/kg/injection, schedule: Q02DX Z (sc), vehicle: other): 100 % of control
T/C (dose: 23.0 mg/kg/injection, schedule: Q## X Z (sc), vehicle: other): 161 % of control
T/C (dose: 23.0 mg/kg/injection, schedule: Q#A X Z (sc), vehicle: other): 105 % of control
T/C (dose: 25.0 mg/kg/injection, schedule: Q01DX Z (sc), vehicle: other): 112 % of control
T/C (dose: 39.0 mg/kg/injection, schedule: Q01DX001 (sc), vehicle: other): 100 % of control
T/C (dose: 39.0 mg/kg/injection, schedule: Q01DX Z (ip), vehicle: other): 100 % of control
T/C (dose: 39.0 mg/kg/injection, schedule: Q01DX Z (oral), vehicle: other): 110 % of control
T/C (dose: 39.0 mg/kg/injection, schedule: Q02DX Z (sc), vehicle: other): 111 % of control
T/C (dose: 39.0 mg/kg/injection, schedule: Q07DX Z (sc), vehicle: other): 111 % of control
T/C (dose: 39.0 mg/kg/injection, schedule: Q#A X Z (sc), vehicle: other): 166 % of control
T/C (dose: 40.0 mg/kg/injection, schedule: Q01DX009 (sc), vehicle: saline with Tween-80): 151 % of control
T/C (dose: 46.8 mg/kg/injection, schedule: Q01DX Z (sc), vehicle: other): 122 % of control
T/C (dose: 50.0 mg/kg/injection, schedule: Q01DX Z (sc), vehicle: other): 175 % of control
T/C (dose: 65.0 mg/kg/injection, schedule: Q01DX001 (sc), vehicle: other): 105 % of control
T/C (dose: 65.0 mg/kg/injection, schedule: Q01DX Z (sc), vehicle: methylcellulose (MC)): 165 % of control
T/C (dose: 65.0 mg/kg/injection, schedule: Q02DX Z (sc), vehicle: other): 111 % of control
T/C (dose: 65.0 mg/kg/injection, schedule: Q07DX Z (sc), vehicle: other): 111 % of control
T/C (dose: 65.0 mg/kg/injection, schedule: Q## X Z (sc), vehicle: other): 111 % of control
T/C (dose: 65.0 mg/kg/injection, schedule: Q#A X Z (sc), vehicle: other): 177 % of control
T/C (dose: 78.0 mg/kg/injection, schedule: Q01DX Z (sc), vehicle: other): 194 % of control
T/C (dose: 80.0 mg/kg/injection, schedule: Q01DX009 (sc), vehicle: saline with Tween-80): 110 % of control
T/C (dose: 100.0 mg/kg/injection, schedule: Q01DX Z (sc), vehicle: other): 162 % of control
T/C (dose: 108.0 mg/kg/injection, schedule: Q01DX001 (sc), vehicle: other): 122 % of control
T/C (dose: 108.0 mg/kg/injection, schedule: Q01DX Z (ip), vehicle: other): 175 % of control
T/C (dose: 108.0 mg/kg/injection, schedule: Q01DX Z (oral), vehicle: other): 170 % of control
T/C (dose: 108.0 mg/kg/injection, schedule: Q02DX Z (sc), vehicle: other): 200 % of control
T/C (dose: 108.0 mg/kg/injection, schedule: Q07DX Z (sc), vehicle: other): 122 % of control
T/C (dose: 108.0 mg/kg/injection, schedule: Q## X Z (sc), vehicle: other): 111 % of control
T/C (dose: 130.0 mg/kg/injection, schedule: Q01DX Z (sc), vehicle: other): 177 % of control
T/C (dose: 160.0 mg/kg/injection, schedule: Q01DX009 (sc), vehicle: saline with Tween-80): 89 % of control
T/C (dose: 180.0 mg/kg/injection, schedule: Q01DX001 (sc), vehicle: other): 122 % of control
T/C (dose: 180.0 mg/kg/injection, schedule: Q01DX Z (sc), vehicle: methylcellulose (MC)): 118 % of control
T/C (dose: 180.0 mg/kg/injection, schedule: Q02DX Z (sc), vehicle: other): 172 % of control
T/C (dose: 180.0 mg/kg/injection, schedule: Q07DX Z (sc), vehicle: other): 122 % of control
T/C (dose: 180.0 mg/kg/injection, schedule: Q## X Z (sc), vehicle: other): 122 % of control
T/C (dose: 216.0 mg/kg/injection, schedule: Q01DX Z (sc), vehicle: other): 166 % of control
T/C (dose: 300.0 mg/kg/injection, schedule: Q01DX001 (sc), vehicle: other): 111 % of control
T/C (dose: 300.0 mg/kg/injection, schedule: Q01DX Z (sc), vehicle: other): 150 % of control

Cc1ccc(NCCN(C)C)c2c(=O)c3cc(O)ccc3sc12
T/C (dose: 12.5 mg/kg/injection, schedule: Q01DX009 (ip), vehicle: Klucel (hydroxypropylcellulose) (HPC)): 110 % of control and 112 % of control
T/C (dose: 25.0 mg/kg/injection, schedule: Q01DX009 (ip), vehicle: Klucel (hydroxypropylcellulose) (HPC)): 112 % of control and 117 % of control
T/C (dose: 50.0 mg/kg/injection, schedule: Q01DX009 (ip), vehicle: Klucel (hydroxypropylcellulose) (HPC)): 165 % of control

N[C@@H](Cc1ccc(N(CCCl)CCCl)cc1)C(=O)O
T/C (dose: 0.31 mg/kg/injection, schedule: Q01DX009 (ip), vehicle: saline): 96 % of control
T/C (dose: 0.31 mg/kg/injection, schedule: Q01DX009 (sc), vehicle: saline): 100 % of control
T/C (dose: 0.62 mg/kg/injection, schedule: Q01DX009 (ip), vehicle: saline): 104 % of control
T/C (dose: 0.62 mg/kg/injection, schedule: Q01DX009 (sc), vehicle: saline): 104 % of control
T/C (dose: 0.63 mg/kg/injection, schedule: Q01DX009 (ip), vehicle: saline): 99 % of control
T/C (dose: 1.0 mg/kg/injection, schedule: Q01DX009 (ip), vehicle: suspension in saline): 121 % of control
T/C (dose: 1.0 mg/kg/injection, schedule: Q01DX009 (sc), vehicle: saline with Tween-80): 105 % of control and 108 % of control
T/C (dose: 1.25 mg/kg/injection, schedule: Q01DX009 (ip), vehicle: saline): 112 % of control and 113 % of control and 121 % of control
T/C (dose: 1.25 mg/kg/injection, schedule: Q01DX009 (sc), vehicle: saline): 115 % of control and 121 % of control
T/C (dose: 2.0 mg/kg/injection, schedule: Q01DX009 (sc), vehicle: saline with Tween-80): 110 % of control and 124 % of control
T/C (dose: 2.5 mg/kg/injection, schedule: Q01DX009 (ip), vehicle: saline): 124 % of control
T/C (dose: 3.0 mg/kg/injection, schedule: Q01DX009 (ip), vehicle: saline): 153 % of control
T/C (dose: 3.5 mg/kg/injection, schedule: Q01DX009 (ip), vehicle: saline): 168 % of control
T/C (dose: 4.0 mg/kg/injection, schedule: Q01DX009 (ip), vehicle: saline): 173 % of control
T/C (dose: 4.0 mg/kg/injection, schedule: Q01DX009 (ip), vehicle: suspension in saline): 169 % of control
T/C (dose: 4.0 mg/kg/injection, schedule: Q01DX009 (sc), vehicle: saline with Tween-80): 163 % of control
T/C (dose: 4.5 mg/kg/injection, schedule: Q01DX009 (ip), vehicle: saline): 169 % of control
T/C (dose: 5.0 mg/kg/injection, schedule: Q01DX009 (sc), vehicle: saline): 153 % of control and 156 % of control
T/C (dose: 5.3 mg/kg/injection, schedule: Q01DX009 (sc), vehicle: saline): 161 % of control
T/C (dose: 7.5 mg/kg/injection, schedule: Q01DX009 (sc), vehicle: saline): 104 % of control
T/C (dose: 8.0 mg/kg/injection, schedule: Q01DX009 (ip), vehicle: suspension in saline): 88 % of control
T/C (dose: 8.0 mg/kg/injection, schedule: Q01DX009 (sc), vehicle: saline with Tween-80): 168 % of control
T/C (dose: 10.0 mg/kg/injection, schedule: Q01DX009 (sc), vehicle: saline): 98 % of control
T/C (dose: 16.0 mg/kg/injection, schedule: Q01DX009 (sc), vehicle: saline with Tween-80): 118 % of control and 87 % of control
T/C (dose: 18.0 mg/kg/injection, schedule: Q01DX009 (sc), vehicle: saline): 110 % of control
T/C (dose: 32.0 mg/kg/injection, schedule: Q01DX009 (sc), vehicle: saline with Tween-80): 107 % of control
T/C (dose: 64.0 mg/kg/injection, schedule: Q01DX009 (sc), vehicle: saline with Tween-80): 108 % of control
